Assay results as given in ChEMBL document CHEMBL1201862, “PubChem BioAssay data set” (2004).
Activity calls are given as the source filed them.

What was measured:
Coagulation factor XII = target: T1, Coagulation factor XII (Homo sapiens, UniProt P00748); assay: Factor XIIa Dose Response Confirmation from Single Well HTS. [Related pubchem assays (depositor defined):AID701]; format: functional
T1 sequence (P00748 whole entry): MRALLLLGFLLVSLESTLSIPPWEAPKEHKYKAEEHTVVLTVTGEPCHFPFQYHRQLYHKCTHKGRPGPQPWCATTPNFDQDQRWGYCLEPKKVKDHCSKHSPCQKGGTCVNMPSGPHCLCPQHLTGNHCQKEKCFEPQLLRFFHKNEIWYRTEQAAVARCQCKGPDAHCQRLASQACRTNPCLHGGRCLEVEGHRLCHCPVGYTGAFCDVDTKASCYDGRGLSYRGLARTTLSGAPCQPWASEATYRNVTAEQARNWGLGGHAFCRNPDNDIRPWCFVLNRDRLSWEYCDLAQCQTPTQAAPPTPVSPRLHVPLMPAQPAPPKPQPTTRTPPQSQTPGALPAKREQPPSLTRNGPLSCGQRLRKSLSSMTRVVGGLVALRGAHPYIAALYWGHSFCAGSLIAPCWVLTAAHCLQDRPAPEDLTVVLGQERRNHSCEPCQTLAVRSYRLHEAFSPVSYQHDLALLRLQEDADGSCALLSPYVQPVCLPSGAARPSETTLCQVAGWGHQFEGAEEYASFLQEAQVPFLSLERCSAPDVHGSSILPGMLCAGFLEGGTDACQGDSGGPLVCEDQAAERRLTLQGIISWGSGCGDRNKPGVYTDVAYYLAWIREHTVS

[1] = target: G-protein coupled receptor 55 (Homo sapiens, UniProt Q9Y2T6); assay: GPR55 antagonists blocking LPI-driven arrestin recruitment, primary screen, imaging, U2OS, beta-arrestin-GFP, LPI agonist (AID 2013); format: functional;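 note: antagonist potency measured as reduced agonist-driven arrestin aggregation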
Trypanosoma cruzi = assay: growth inhibition of intracellular Trypanosoma cruzi, dose response, cell-based, plate reader, dry powder, set 3 (AID 493197); format: functional
[2] = target: Voltage-dependent T-type calcium channel subunit alpha-1H (Homo sapiens, UniProt O95180); format: functional;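 note: channel activity triggered by adding a high calcium stimulation buffer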
[3] = target: NACHT, LRR and PYD domains-containing protein 3 (Homo sapiens, UniProt Q96P20); assay: NALP3 inhibitors in yeast, dose response, luminescent (AID 488799); format: functional
[4] = cytotoxicity toward DRD oncogenic fibroblasts, dose response, cell-based, non-viral oncogenic, luminescence (AID 1934); format: functional; details: Homo sapiens
BJ [5] = assay: cytotoxicity toward BJ-TERT fibroblasts, dose response, cell-based, RAS-independent, luminescence (AID 1933); format: functional; details: Homo sapiens
BJ [6] = assay: cytotoxicity toward BJ-TERT-LT-ST fibroblasts, dose response, cell-based, RAS-independent, luminescence (AID 1935); format: functional; details: Homo sapiens;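 note: BJ fibroblasts immortalized with TERT plus LT and ST oncogenes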
BJ [7] = assay: cells; format: functional, cell-based; details: Homo sapiens
[8] = microbe, parasite or virus in culture; format: functional; details: Mycobacterium tuberculosis
[9] = target: Neurotensin receptor type 1 (Homo sapiens, UniProt P30989); format: functional;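 note: Image-based confirmatory dose-response assay measuring agonist activity at NTR1; NTR1-expressing U2OS osteosarcoma cells imaged for beta-arrestin GFP spot formation; agonist potency where compounds increase beta-arrestin recruitment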
[10] = target: Alkaline phosphatase, placental type (Homo sapiens, UniProt P05187); assay: PLAP enzyme inhibitors, confirmation, biochemical, luminescence (AID 1512); format: functional
[11] = target: Glyceraldehyde-3-phosphate dehydrogenase (Homo sapiens, UniProt P04406)
cells [12] = format: functional, cell-based
[13] = THP-1 cell cytotoxicity, dose response, cytotoxicity control for non-replicating M. tuberculosis project (AID 489025); format: functional
[14] = control 3'UTR Renilla luciferase suppression, dose response, counter-screen for Shn3 inhibitor project, cell-based, Clone20-Shn3RL, cherry-picked (AID 624133); format: functional
cells [15] = format: functional
[16] = HepG2 cell cytotoxicity, dose response, cytotoxicity control for Shn3 inhibitor project, CellTiter-Glo, cherry-picked (AID 624134); format: functional, cell-based
[17] = HepG2 cell cytotoxicity, dose response, cytotoxicity control for non-replicating M. tuberculosis project (AID 489018); format: functional; details: Mycobacterium tuberculosis
HT-1080 = assay: cytotoxicity in HT1080 fibrosarcoma cells, cell-based, fluorescence readout (AID 620); format: functional; details: Homo sapiens
[18] = Vero E6 cell cytotoxicity, dose response, cytotoxicity control for non-replicating M. tuberculosis project, secondary assay (AID 492998); format: functional, VeroE6; details: Vero C1008
[19] = target: Luciferin 4-monooxygenase (Photinus pyralis, UniProt P08659); assay: Counter Screen for Luciferase-based Assay Positives. [Related pubchem assays: 620, 618, 411 ]
[20] = Shn3 3'UTR reporter inhibitors, dose response, cell-based, Clone20 osteoblasts, firefly luciferase, cherry-picked (AID 624132); format: functional;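 note: firefly luciferase luminescence from reporter carrying the Shn3 3'UTR in osteoblasts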
[21] = target: T2, Microphthalmia-associated transcription factor (Homo sapiens, UniProt O75030); assay: TRPM1 promoter luciferase signal decrease, dose response, MITF inhibitor project, cell-based, SK-MEL-5, cherry-picked, set 3 (AID 493073); format: functional
T2 sequence (O75030 whole entry): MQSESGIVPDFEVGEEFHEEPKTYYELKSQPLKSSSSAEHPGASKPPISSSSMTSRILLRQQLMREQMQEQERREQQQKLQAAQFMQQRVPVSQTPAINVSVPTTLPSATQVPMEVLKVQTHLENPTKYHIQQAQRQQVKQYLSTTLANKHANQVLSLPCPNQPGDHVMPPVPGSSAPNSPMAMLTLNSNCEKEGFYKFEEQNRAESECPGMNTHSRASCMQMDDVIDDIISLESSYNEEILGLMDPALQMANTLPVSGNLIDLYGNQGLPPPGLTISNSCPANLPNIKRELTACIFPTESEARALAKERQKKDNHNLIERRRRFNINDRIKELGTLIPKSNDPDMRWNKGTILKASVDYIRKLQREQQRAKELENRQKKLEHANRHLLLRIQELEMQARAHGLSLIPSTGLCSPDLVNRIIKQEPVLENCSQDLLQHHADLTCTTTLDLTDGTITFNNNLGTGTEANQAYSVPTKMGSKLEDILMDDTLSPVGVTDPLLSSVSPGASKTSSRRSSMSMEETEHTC

cells [22] = format: functional, cell-based; remark: listed apart in the source
A-375 = assay: A375 melanoma cell viability reduction, dose response, counter-screen for MITF modulator project, cherry-pick samples, set 2 (AID 540335); format: functional, cell-based; details: Homo sapiens
BJ [23] = assay: cytotoxicity toward Ras-transformed BJeLR fibroblasts, dose response, cell-based, alamar blue fluorescence, cherrypicked samples (AID 2631); format: functional; details: Homo sapiens;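 note: confirmatory dose-response assay in RAS-dependent BJ fibroblasts engineered with TERT, LT and ST, with cytotoxicity read by fluorescence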
Nonstructural protein 1 = Nonstructural protein 1 (Influenza A virus, UniProt Q194T2); format: functional, Influenza A virus (A/California/07/2009(H1N1))
[24] = Cytotoxicity screening for potential Inhibitors of Bacterial Capsule Biogenesis. [Related pubchem assays (depositor defined):AID488970]; format: functional
[25] = target: Cyclin-dependent kinase 5/CDK5 activator 1 (Homo sapiens, UniProt Q00535); assay: CDK5/p35 kinase inhibitors, dose response, biochemical, cherry-picked samples, set 2 (AID 504545)
[26] = target: T3, Oxysterols receptor LXR-beta (Homo sapiens, UniProt P55055); format: functional, cell-based;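 note: agonist activity at LXR measured by a cell-based luminescence readout across a dose range, run as a counterscreen for daf-12 agonists; HEK293 cells with Gal4-LXR fusion and GAL4-driven luciferase reporter; potency for activation of Gal4-LXR reporter so compounds are agonists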
T3 sequence (P55055 whole entry): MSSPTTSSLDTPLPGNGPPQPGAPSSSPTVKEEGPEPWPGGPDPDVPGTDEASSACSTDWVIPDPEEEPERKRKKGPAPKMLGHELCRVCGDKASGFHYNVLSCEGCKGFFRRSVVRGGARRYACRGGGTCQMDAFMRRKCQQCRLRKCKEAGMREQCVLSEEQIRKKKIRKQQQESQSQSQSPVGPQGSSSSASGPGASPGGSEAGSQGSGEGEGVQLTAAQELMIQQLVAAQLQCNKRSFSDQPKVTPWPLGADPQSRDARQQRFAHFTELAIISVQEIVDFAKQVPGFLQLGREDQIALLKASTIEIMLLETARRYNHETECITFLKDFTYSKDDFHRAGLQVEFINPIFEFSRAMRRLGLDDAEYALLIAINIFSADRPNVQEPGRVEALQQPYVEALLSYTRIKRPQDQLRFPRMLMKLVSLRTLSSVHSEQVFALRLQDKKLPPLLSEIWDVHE

[27] = HepG2 cell cytotoxicity, dose response, cytotoxicity control, ATP luminescence, cherry-pick, activator set 2 (AID 1053143); format: functional, cell-based

Luciferin 4-monooxygenase, sequence (P08659 whole entry): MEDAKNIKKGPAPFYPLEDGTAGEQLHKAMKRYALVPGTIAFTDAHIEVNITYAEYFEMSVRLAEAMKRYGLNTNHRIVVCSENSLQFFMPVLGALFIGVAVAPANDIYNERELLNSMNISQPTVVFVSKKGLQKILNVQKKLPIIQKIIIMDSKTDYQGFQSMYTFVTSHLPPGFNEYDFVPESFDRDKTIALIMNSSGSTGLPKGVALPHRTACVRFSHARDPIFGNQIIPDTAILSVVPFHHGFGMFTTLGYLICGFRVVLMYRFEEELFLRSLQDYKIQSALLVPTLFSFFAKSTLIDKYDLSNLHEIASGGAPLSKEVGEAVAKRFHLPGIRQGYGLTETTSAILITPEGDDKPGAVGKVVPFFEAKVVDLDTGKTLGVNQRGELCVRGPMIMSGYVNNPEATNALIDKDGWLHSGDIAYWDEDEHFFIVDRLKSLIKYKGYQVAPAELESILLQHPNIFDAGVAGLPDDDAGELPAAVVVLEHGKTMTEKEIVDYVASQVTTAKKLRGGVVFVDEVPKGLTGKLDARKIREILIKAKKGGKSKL
Voltage-dependent T-type calcium channel subunit alpha-1H, sequence (O95180 whole entry, the tested form may be a part): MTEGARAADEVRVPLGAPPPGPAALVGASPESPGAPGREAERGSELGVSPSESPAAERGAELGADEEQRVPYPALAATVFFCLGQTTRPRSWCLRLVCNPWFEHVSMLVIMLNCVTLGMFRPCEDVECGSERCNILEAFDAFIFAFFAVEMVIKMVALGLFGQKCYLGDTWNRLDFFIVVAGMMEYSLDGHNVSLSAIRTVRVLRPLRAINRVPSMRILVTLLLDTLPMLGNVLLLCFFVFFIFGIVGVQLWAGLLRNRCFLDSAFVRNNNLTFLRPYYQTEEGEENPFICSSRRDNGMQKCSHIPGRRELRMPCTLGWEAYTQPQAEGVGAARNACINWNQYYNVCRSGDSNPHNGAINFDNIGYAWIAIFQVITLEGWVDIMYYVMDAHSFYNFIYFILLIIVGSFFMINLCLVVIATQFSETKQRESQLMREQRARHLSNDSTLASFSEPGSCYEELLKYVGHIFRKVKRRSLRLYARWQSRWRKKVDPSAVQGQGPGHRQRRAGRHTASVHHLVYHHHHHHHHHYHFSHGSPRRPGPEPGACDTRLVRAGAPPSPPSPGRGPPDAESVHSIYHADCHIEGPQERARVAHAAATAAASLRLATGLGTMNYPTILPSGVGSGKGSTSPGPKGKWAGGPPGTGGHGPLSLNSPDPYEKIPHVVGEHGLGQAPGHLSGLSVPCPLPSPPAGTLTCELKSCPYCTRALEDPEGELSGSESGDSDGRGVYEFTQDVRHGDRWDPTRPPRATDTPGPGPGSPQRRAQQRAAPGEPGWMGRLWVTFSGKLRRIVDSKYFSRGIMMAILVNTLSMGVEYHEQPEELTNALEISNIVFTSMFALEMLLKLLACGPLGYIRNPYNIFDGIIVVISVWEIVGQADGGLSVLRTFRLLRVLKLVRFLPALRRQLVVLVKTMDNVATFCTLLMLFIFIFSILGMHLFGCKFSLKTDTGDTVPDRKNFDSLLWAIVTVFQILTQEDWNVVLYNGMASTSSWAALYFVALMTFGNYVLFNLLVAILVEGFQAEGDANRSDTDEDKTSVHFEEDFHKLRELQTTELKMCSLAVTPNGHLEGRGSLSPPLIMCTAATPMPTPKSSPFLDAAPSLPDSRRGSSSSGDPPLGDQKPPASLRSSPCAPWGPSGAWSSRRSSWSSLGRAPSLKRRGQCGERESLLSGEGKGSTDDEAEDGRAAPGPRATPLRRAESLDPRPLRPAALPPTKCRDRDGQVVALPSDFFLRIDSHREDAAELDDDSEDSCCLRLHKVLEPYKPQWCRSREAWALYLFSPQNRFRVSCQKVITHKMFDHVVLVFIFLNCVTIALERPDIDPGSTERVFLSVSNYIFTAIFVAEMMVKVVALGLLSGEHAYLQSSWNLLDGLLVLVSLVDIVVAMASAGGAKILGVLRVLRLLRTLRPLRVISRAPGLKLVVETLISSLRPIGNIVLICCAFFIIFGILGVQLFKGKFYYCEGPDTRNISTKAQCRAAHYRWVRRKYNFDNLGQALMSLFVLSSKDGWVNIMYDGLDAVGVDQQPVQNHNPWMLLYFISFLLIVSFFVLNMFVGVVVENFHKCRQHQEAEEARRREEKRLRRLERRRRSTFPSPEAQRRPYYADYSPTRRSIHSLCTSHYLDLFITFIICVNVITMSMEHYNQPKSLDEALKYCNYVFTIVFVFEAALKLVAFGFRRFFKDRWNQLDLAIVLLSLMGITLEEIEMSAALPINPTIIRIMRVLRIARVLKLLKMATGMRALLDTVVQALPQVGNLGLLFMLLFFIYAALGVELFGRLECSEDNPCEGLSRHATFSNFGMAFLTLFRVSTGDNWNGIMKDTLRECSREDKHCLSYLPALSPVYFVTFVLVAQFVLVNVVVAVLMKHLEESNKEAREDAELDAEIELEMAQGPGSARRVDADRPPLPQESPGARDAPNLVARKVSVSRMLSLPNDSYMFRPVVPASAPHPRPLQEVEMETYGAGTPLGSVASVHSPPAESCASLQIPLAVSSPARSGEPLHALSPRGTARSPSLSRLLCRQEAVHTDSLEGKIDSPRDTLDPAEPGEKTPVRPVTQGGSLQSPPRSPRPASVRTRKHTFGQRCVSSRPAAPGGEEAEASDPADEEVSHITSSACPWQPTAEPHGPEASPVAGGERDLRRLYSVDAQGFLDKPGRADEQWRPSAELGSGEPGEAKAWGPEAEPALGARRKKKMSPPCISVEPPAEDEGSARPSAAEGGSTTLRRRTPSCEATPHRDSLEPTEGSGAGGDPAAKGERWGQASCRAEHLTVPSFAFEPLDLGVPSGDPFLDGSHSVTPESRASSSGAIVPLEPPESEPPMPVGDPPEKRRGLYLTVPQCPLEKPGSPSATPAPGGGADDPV
Neurotensin receptor type 1, sequence (P30989 whole entry): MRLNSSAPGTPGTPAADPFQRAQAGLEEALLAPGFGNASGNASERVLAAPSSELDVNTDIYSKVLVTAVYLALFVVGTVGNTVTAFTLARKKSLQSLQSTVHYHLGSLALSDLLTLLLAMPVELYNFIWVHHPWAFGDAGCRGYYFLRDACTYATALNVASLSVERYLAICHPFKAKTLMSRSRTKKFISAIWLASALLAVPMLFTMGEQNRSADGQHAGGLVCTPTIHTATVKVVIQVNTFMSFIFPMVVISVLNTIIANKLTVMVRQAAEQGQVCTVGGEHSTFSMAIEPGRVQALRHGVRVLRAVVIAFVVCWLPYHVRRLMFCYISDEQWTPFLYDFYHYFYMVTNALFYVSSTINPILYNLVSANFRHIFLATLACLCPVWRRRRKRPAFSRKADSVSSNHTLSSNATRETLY
Nonstructural protein 1, sequence (Q194T2 whole entry): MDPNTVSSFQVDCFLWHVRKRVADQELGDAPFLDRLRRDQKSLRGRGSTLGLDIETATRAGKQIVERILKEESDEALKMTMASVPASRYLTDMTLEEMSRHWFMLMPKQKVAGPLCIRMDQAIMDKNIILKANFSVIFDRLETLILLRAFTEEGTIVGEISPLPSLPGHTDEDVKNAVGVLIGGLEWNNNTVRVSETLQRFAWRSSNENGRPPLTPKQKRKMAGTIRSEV
G-protein coupled receptor 55, sequence (Q9Y2T6 whole entry): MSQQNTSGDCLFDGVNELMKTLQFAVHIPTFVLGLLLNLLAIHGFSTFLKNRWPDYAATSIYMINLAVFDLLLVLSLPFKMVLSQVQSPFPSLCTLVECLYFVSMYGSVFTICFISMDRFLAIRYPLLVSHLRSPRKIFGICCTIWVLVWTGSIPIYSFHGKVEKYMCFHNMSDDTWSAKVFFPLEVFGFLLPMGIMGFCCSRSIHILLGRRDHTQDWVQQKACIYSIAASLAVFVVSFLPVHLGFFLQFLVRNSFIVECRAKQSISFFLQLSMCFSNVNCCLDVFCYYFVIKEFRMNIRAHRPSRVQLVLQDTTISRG
Alkaline phosphatase, placental type, sequence (P05187 whole entry): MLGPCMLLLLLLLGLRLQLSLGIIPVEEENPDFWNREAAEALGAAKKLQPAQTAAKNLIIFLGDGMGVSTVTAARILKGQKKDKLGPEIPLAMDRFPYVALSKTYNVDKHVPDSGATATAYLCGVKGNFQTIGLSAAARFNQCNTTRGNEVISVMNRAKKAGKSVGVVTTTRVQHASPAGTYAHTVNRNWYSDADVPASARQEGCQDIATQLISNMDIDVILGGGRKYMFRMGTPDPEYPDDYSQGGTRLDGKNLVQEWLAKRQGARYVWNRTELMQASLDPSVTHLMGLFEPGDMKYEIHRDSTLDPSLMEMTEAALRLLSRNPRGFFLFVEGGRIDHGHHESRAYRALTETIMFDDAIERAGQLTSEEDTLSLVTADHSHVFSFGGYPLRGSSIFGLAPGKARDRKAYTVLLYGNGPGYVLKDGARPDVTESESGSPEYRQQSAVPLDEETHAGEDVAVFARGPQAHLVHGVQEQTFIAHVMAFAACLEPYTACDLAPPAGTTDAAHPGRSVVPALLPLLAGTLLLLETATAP
Glyceraldehyde-3-phosphate dehydrogenase, sequence (P04406 whole entry): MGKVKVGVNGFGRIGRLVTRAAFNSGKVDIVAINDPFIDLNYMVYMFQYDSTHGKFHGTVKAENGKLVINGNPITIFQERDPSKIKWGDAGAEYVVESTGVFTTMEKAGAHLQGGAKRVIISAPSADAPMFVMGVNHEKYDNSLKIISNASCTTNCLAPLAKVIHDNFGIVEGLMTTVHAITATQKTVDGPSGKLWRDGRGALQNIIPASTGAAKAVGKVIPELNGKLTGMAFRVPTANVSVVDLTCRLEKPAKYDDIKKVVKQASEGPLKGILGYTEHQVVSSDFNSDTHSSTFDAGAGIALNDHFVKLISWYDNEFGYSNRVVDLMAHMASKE

**Q.** For N#CC1=C2SCC(O)(c3ccccc3)N2C(=O)CC1c1ccccc1F (configuration not stated), which IC50 (Coagulation factor XII) is on record?
**A.** 2.02 µM (active)

**Q.** With COC(=O)C1=C(C)N(Cc2ccccc2)C(NCc2cc(OC)c(OC)c(OC)c2)=N[C@H]1c1ccccc1 as the compound, how does the IC50 [1] read?
**A.** 3.93 µM (active)

**Q.** Which AC50 (Trypanosoma cruzi) does the source give for CCCNC(=O)C1(C)CCCN(Cc2cccc(Oc3ccccc3)c2)C1 (configuration not stated) here?
**A.** 9.13 µM (active)

**Q.** Which EC50 [2] does the source give for COc1ccc(-c2noc(CCC(=O)N(C)c3cccc(C)c3)n2)cc1 here?
**A.** 6.52 µM (active)

**Q.** Which IC50 [3] does the source give for Cn1c(=O)c(C(=O)Nc2ncccn2)c(O)c2ccccc21 here?
**A.** 13.6 µM (active)

**Q.** What does the source list for COc1cc(C(=O)/C=C/c2cccnc2)c([N+](=O)[O-])cc1OC?
**A.** EC50 [4]: 9.22 µM (active); EC50 (BJ [5]): 13 µM (active); EC50 (BJ [6]): > 75 µM (not active); EC50 (BJ [7]): 18.6 µM (active); CC50 [8]: 15.6 µM (active); EC50 [9]: 32.1 µM (inactive)

**Q.** For CC(C)NC(=O)c1cc(-c2ccc(Cl)cc2Cl)n[nH]1, which IC50 [10] is on record?
**A.** > 100 µM (inactive)

**Q.** What about the IC50 [11] of the same compound?
**A.** > 100 µM (not active)

**Q.** With CN(C)c1nc(-c2ccccn2)nnc1-c1ccccc1 as the compound, how does the EC50 (cells [12]) read?
**A.** > 350 µM (not active)

**Q.** What about the EC50 [4] of the same compound?
**A.** 17.5 µM (active)

**Q.** And the CC50 [13]?
**A.** 8.1 µM (active)

**Q.** What about the AC50 [14] of the same compound?
**A.** 8.3 µM (active)

**Q.** And the IC50 (cells [15])?
**A.** 6.05 µM (active)

**Q.** And the AC50 [16]?
**A.** 57.6 µM (active)

**Q.** What about the CC50 [17] of the same compound?
**A.** 19.8 µM (active)

**Q.** What about the EC50 (HT-1080) of the same compound?
**A.** > 50 µM (not active)

**Q.** What about the CC50 [18] of the same compound?
**A.** 5.38 µM (active)

**Q.** And the EC50 [19]?
**A.** 1.23 µM (active)

**Q.** And the AC50 [20]?
**A.** 3.3 µM (active)

**Q.** What about the EC50 (BJ [5]) of the same compound?
**A.** 16.5 µM (inconclusive)

**Q.** And the EC50 (BJ [6])?
**A.** > 150 µM (inconclusive)

**Q.** What about the AC50 [21] of the same compound?
**A.** 6.17 µM (active)

**Q.** And the EC50 (cells [22])?
**A.** 7.46 µM (active)

**Q.** What about the AC50 (A-375) of the same compound?
**A.** 39.3 µM (active)

**Q.** What about the EC50 (BJ [23]) of the same compound?
**A.** 121 µM (inconclusive)

**Q.** And the EC50 (BJ [7])?
**A.** 13.3 µM (inconclusive)

**Q.** What about the IC50 (Nonstructural protein 1) of the same compound?
**A.** 1.09 µM (active)

**Q.** Which AC50 [21] does the source give for N=c1n(CCN2CCCC2)c2ccccc2n1CC(O)c1ccc(Cl)c(Cl)c1 (configuration not stated) here?
**A.** 11.8 µM (active)

**Q.** What about the CC50 [24] of the same compound?
**A.** 7.43 µM (active)

**Q.** For COc1ccc(Nc2nccc(-c3cccc(N)c3)n2)cc1, which AC50 [25] is on record?
**A.** 80.7 µM (active)

**Q.** And the EC50 [26]?
**A.** > 67.5 µM (inactive)

**Q.** What about the AC50 [27] of the same compound?
**A.** 18.8 µM (active)
